Series [1] is described as follows: Rat pharmacokinetics, single intramuscular injection. The class given is in vivo, Male Wistar Han rats. The conditions noted are these: single IM dose 20 mg/kg, suspension 10 mg/mL; EFdA in blood, FIG. 2 and 3. On the procedure: The pharmacokinetics of Compounds 6 and 21 after a single intramuscular (IM) injection were evaluated in Male Wistar Han rats. The test compound was suspended in a 2% P407, 2% PEG3350, 3.5% Mannitol formulation at 10 mg/mL concentration. A single dose of 20 mg/kg of test compound was injected (2 mL/kg) IM into the right gastrocnemius muscle (n=3). Blood samples were collected via a lateral tail vein at the following time points: Day 1 [30 min, 1 h, 3 h, 5 h, 7 h], Days 2-5, Days 7, 10, 14, 17, 21, 24, 28, 31, 35, 38, 42, 45, 49, 52, 56, 59, 63, 66 and 70, etc. To evaluate test compound and EFdA concentrations, approximately 150 μL of blood was collected into a NaFL/Na2EDTA tube. Exactly 150 μL of blood was then pipetted into a new tube, mixed with 150 μL of 100 mM ammonium acetate pH4, (some of the prodrugs required mixing with 1.5 μL of FA as stabilizer), vortexed, immediately frozen on dry ice and stored at −80° C. until analysis. […] The supernatants were then analyzed by UPLC/MS-MS (Triple Quad™ 6500+). Pharmacokinetic parameters were evaluated using a non-compartmental model of the non-compartmental analysis tool, Pharsight Phoenix WinNonlin® 6.4 software.

In series [2] the test system is wild-type NL4-3 replication defective pseudovirus (PSV). As to the kind of experiment: microbe, parasite or virus in culture. Type of series: cell-based. The conditions noted are these: NL43, 72 h, U373 cells expressing human CD4 and CXCR4 or CCR5, luciferase signal after 3 days, mean IC50, read-out: WT IC50.
Series [3] concerns PSV with methionine 184 to valine (M184V) substitution in the reverse transcriptase gene. As to the kind of experiment: microbe, parasite or virus in culture. The class given is cell-based, HIV. Conditions: Human immunodeficiency virus 1, 72 h, read-out: M184V IC50.

For `C#C[C@]1(CO)O[C@@H](n2cnc3c(N)nc(F)nc32)C[C@@H]1OC(=O)CC(C)(C)c1c(C)cc(C)cc1OC(C)=O` [Example 21, (2R,3S,5R)-5-(6-amino-2-fluoro-9H-purin-9-yl)-2-ethynyl-2-(hydroxymethyl)tetrahydrofuran-3-yl 3-(2-acetoxy-4,6-dimethylphenyl)-3-methylbutanoate], the “sustained exposure to EFdA out to” value in series [1] is “does not afford a sustained release profile”. By IC50 is commonly meant the concentration that inhibits the measured activity by half. On to `C#C[C@]1(CO)O[C@@H](n2cnc3c(N)nc(F)nc32)C[C@@H]1OC(=O)C(CCC)CCC` [Example 5, (2R,3S,5R)-5-(6-amino-2-fluoro-9H-purin-9-yl)-2-ethynyl-2-(hydroxymethyl)tetrahydrofuran-3-yl 2-propylpentanoate], for which the IC50 in series [2] turned out to be 0.0355 µM; in series [3] it was 0.168 µM. In the case of `C#C[C@]1(CO)O[C@@H](n2cnc3c(N)nc(F)nc32)C[C@@H]1OC(=O)CCCCCCCCCCCCC` [Example 2, (2R,3S,5R)-5-(6-amino-2-fluoro-9H-purin-9-yl)-2-ethynyl-2-(hydroxymethyl)tetrahydrofuran-3-yl tetradecanoate], the IC50 in series [2] worked out at 0.0015 µM; in series [3], 0.0078 µM.
